Measured values taken from PMC8882856, “The affinity and selectivity of α‐adrenoceptor antagonists, antidepressants and antipsychotics for the human α2A, α2B, and α2C‐adrenoceptors and comparison with human α1 and β‐adrenoceptors” (Pharmacology Research & Perspectives, 2022).
pIC50, pKd: −log10 of the molar value. Read-outs that look alike come from different tables or passages of the source. Values belong to the compound of their own block, whether it stands above or below them.

How the values were obtained:
[1] = target: human β2‐adrenoceptor (Homo sapiens, UniProt P07550); assay type: binding; conditions: for IC50 (log) β2: printed as log IC50 bound (negative) in the Log KD β2 column, 3H-CGP12177
[2] = target: human β1‐adrenoceptor (Homo sapiens, UniProt P08588); conditions: for IC50 (log) β1: printed as log IC50 bound (negative) in the Log KD β1 column, 3H-CGP12177
[3] = target: T1, human α2A‐adrenoceptor (Homo sapiens, UniProt P08913); assay: ^3H‐rauwolscine whole cell competition binding, CHO‐α2A cells; conditions: for Selectivity ratio α2A vs α2B (α2A-selective): fold, higher affinity at α2A than α2B, 1 = no selectivity; for Selectivity ratio α2A vs α2B (higher affinity for α2A): ratio of KD values
T1 sequence (P08913 1-465): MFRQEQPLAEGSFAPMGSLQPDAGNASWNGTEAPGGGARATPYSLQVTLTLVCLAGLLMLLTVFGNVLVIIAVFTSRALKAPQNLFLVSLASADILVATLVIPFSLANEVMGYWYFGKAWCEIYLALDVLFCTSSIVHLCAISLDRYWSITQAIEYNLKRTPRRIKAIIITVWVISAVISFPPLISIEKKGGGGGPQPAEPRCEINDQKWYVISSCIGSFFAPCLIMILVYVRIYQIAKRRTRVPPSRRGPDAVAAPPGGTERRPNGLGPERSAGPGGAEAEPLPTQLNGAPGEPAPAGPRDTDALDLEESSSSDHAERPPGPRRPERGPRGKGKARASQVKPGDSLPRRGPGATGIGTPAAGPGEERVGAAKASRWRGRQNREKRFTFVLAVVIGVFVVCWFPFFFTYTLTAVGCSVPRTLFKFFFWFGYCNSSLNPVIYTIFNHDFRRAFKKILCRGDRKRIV

[4] = target: T2, human α2B‐adrenoceptor (Homo sapiens, UniProt P18089); assay: ^3H‐rauwolscine whole cell competition binding, CHO‐α2B cells
T2 sequence (P18089 1-450): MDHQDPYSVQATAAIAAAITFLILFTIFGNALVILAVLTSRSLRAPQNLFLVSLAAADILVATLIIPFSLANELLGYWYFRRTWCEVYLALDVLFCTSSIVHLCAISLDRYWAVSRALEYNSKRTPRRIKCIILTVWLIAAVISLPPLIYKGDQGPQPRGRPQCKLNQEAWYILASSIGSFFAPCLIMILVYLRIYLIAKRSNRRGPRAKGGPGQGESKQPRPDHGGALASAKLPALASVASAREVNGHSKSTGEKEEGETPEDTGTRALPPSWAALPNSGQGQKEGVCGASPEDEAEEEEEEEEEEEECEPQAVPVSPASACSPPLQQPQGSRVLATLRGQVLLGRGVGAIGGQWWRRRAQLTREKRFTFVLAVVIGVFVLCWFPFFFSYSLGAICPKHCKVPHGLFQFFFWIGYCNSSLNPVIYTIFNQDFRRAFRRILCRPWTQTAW

[5] = target: T3, human α2C‐adrenoceptor (Homo sapiens, UniProt P18825); assay: ^3H‐rauwolscine whole cell competition binding, CHO‐α2C cells; conditions: for Selectivity ratio α2A vs α2C (α2C-selective) / Selectivity ratio α2B vs α2C (α2C-selective): fold, 1 = no selectivity; for Selectivity ratio α2A vs α2C (α2C-selective): higher affinity at α2C than α2A; for Selectivity ratio α2B vs α2C (α2C-selective): higher affinity at α2C than α2B; for Selectivity ratio α2A vs α2C (higher affinity for α2C) / Selectivity ratio α2B vs α2C (higher affinity for α2C): ratio of KD values
T3 sequence (P18825 1-462): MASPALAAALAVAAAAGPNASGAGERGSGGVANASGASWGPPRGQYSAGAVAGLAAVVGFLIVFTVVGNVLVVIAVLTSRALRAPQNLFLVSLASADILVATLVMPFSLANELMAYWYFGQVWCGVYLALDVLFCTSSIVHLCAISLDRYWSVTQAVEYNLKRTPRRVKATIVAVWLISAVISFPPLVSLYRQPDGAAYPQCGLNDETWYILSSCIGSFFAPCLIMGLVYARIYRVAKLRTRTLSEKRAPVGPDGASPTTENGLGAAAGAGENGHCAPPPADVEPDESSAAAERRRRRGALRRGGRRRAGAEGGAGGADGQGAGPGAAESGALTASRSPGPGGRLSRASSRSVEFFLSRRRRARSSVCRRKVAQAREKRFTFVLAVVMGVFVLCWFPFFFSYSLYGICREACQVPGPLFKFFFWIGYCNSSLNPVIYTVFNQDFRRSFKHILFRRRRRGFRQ

[6] = given as log KD (negative values), 3H-CGP12177 whole cell binding, CHO cells, mean ± s.e.mean
[7] = given as log KD (negative values), 3H-rauwolscine whole cell binding, CHO cells, mean ± s.e.mean
[8] = ^3H‐CGP12177 whole cell binding, log values, mean ± s.e.mean, ^app = apparent KD, 'no binding to' = log top concentration

human β1‐adrenoceptor, sequence (P08588 whole entry): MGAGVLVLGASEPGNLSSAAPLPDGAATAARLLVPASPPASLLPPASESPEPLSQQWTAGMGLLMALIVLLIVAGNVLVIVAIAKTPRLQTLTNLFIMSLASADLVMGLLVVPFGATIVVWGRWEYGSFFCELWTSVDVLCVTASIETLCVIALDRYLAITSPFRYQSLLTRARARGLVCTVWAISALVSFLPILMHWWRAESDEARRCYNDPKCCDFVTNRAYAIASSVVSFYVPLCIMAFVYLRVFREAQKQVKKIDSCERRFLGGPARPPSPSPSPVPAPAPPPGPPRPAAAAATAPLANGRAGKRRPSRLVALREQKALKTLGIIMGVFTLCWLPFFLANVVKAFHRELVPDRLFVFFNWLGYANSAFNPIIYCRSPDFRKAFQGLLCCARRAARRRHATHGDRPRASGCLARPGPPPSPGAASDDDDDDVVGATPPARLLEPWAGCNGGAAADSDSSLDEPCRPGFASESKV
human β2‐adrenoceptor, sequence (P07550 whole entry): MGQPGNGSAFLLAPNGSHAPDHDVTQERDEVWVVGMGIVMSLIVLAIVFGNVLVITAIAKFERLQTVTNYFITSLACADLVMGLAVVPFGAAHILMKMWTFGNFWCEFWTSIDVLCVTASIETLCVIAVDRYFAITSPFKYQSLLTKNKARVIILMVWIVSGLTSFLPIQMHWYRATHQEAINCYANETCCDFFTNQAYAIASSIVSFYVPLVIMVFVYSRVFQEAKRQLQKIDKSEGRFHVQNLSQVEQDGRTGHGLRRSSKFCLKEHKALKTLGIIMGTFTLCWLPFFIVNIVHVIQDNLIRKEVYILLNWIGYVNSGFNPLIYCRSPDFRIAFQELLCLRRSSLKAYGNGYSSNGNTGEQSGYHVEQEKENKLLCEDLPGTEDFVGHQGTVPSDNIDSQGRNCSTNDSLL

- IC50 (log) β2 [1]: IC50>-4
- Log KD β1 [2, 6]: No binding to -4
- Selectivity ratio α2A vs α2B (α2A-selective) [3]: 4.9
- Log KD α2A [3, 7]: -6.83 ± 0.05
- Log KD α2B [4, 7]: -6.14 ± 0.08
- Selectivity ratio α2A vs α2C (α2C-selective) [5]: 1.7
- Selectivity ratio α2B vs α2C (α2C-selective) [5]: 8.5
- Log KD α2C [5, 7]: -7.07 ± 0.02
Structure (SMILES): O=C1Nc2ccccc2C2=NC(CN3CCN(c4ccccc4)CC3)CN12 (stereo not shown) [2-PMDQ]

- IC50 (log) β2 [1]: IC50>-5
- IC50 (log) β1 [2]: IC50>-5
- Selectivity ratio α2A vs α2B (α2A-selective) [3]: 7.1
- Log KD α2A [3, 7]: -6.79 ± 0.04
- Log KD α2B [4, 7]: -5.94 ± 0.09
- Selectivity ratio α2A vs α2C (α2C-selective) [5]: 5.1
- Selectivity ratio α2B vs α2C (α2C-selective) [5]: 36.3
- Log KD α2C [5, 7]: -7.50 ± 0.02
Structure (SMILES): COc1ccccc1N1CCN(CC2CN3C(=O)N(C)c4ccccc4C3=N2)CC1 (stereo not shown) [2-MPMDQ]

- IC50 (log) β2 [1]: IC50>-4
- IC50 (log) β1 [2]: IC50>-4
- Log KD α2A, apparent affinity (app) ([3]; log KD (negative), apparent KD: maximum concentration inhibited most but not all specific binding, IC50 from extrapolated curve): -5.53 ± 0.12^app
- IC50 (log) α2B ([4]; printed as log IC50 bound (negative) in the Log KD α2B column, 3H-rauwolscine): IC50>-4.5
- Selectivity ratio α2A vs α2C (α2C-selective) [5]: 10.7
- Log KD α2C [5, 7]: -6.56 ± 0.13
Structure (SMILES): COc1cc2nc(N3CCN(C(=O)COc4c(OC)cccc4C(C)C)CC3)nc(N)c2cc1OC [Rec15-2615]

- IC50 (log) β2 [1]: IC50>-5
- IC50 (log) β1 [2]: IC50>-5
- Log KD α2A [3, 7]: -5.99 ± 0.06
- Selectivity ratio α2A vs α2B (α2B-selective column) ([4]; fold, higher affinity at α2B than α2A, 1 = no selectivity): 21.4
- Selectivity ratio α2B vs α2C (α2B-selective column) ([4]; fold, higher affinity at α2B than α2C, 1 = no selectivity): 1.2
- Log KD α2B [4, 7]: -7.32 ± 0.14
- Selectivity ratio α2A vs α2C (α2C-selective) [5]: 18.2
- Log KD α2C [5, 7]: -7.25 ± 0.14
Structure (SMILES): COc1ccccc1N1CCN(CCN2C(=O)c3ccccc3C(C)(C)C2=O)CC1 [ARC 239]

Continued, compound first:

Structure (SMILES): CCC1(C2=NCCN2)Cc2ccccc2O1 (stereo not shown) [eforaxan]
- Log KD β2 [1, 8]: no binding to −3
- Log KD β2 [1, 6]: no binding to -3
- Log KD β1 [2, 8]: no binding to −3
- Log KD β1 [2, 6]: no binding to -3

Structure (SMILES): COc1cccc(OC)c1OCCNCC1CSc2ccccc2O1 (stereo not shown) [benoxathian]
- Log KD β2 [1, 8]: −5.08 ± 0.06
- Log KD β1 [2, 8]: −4.55 ± 0.03^app
- Log KD α2A [3]: −7.17 ± 0.02
- Selectivity ratio α2A vs α2B (higher affinity for α2A) [3]: 16.2
- Log KD α2B [4]: −5.96 ± 0.06
- Log KD α2C [5]: −7.75 ± 0.03
- Selectivity ratio α2A vs α2C (higher affinity for α2C) [5]: 3.8
- Selectivity ratio α2B vs α2C (higher affinity for α2C) [5]: 61.7

Structure (SMILES): COC(=O)C1=C(C)NC(C)=C(C(=O)OCCCN2CCC(c3ccccc3)(c3ccccc3)CC2)[C@H]1c1cccc([N+](=O)[O-])c1 [2‐niguldipine]
- pIC50 [1]: < 4.00

Structure (SMILES): COc1ccccc1N1CCN(CCCNc2c(C)c(=O)n(C)c(=O)n2C)CC1 [5‐methyl‐urapidil]
- Log KD β2 [1]: −5.00 ± 0.07
- Log KD α2A [3]: −5.18 ± 0.05
- Log KD α2B [4]: −5.17 ± 0.05
- Log KD α2C [5]: −5.81 ± 0.07

Structure (SMILES): CC(C)(C)NCC(O)COc1cccc2[nH]c(C#N)cc12 (stereo not shown) [cyanopindolol]
- pKd [3]: 5.56
- pKd [4]: 4.82
- pKd [5]: 6.15

Structure (SMILES): CC(C)(Cc1c[nH]c2ccc(Cl)cc12)NCCOc1ccccc1OCC1CC1 [RS17053]
- Log KD β2 [1]: −6.42 ± 0.06
- Log KD β1 [2]: −5.44 ± 0.04
- Log KD α2A [3]: −6.20 ± 0.11
- Selectivity ratio α2A vs α2B (higher affinity for α2A) [3]: 3.5
- Log KD α2B [4]: −5.65 ± 0.07
- Log KD α2C [5]: −6.35 ± 0.08
- Selectivity ratio α2A vs α2C (higher affinity for α2C) [5]: 1.4
- Selectivity ratio α2B vs α2C (higher affinity for α2C) [5]: 5.0

Structure (SMILES): CNCCCN1c2ccccc2CCc2ccc(Cl)cc21 [norclomipramine]
- IC50 (log) β2, IC50>top concentration used ([1]; ^3H‐CGP12177, log value): IC50>−4.5
- IC50 (log) β1, IC50>top concentration used ([2]; ^3H‐CGP12177, log value): IC50>−4.5
- Log KD α2A [3]: −5.29 ± 0.09^app
- Log KD α2B [4]: −5.74 ± 0.04^app
- Selectivity ratio α2A vs α2B (higher affinity for α2B) ([4]; ratio of KD values): 2.8
- Log KD α2C [5]: −5.80 ± 0.07^app
- Selectivity ratio α2A vs α2C (higher affinity for α2C) [5]: 3.2
- Selectivity ratio α2B vs α2C (higher affinity for α2C) [5]: 1.1

Structure (SMILES): O=C1Cc2cc(CCN3CCN(c4nsc5ccccc45)CC3)c(Cl)cc2N1 [ziprasidone]
- Log KD β2 [1, 8]: No binding to −4
- Log KD β2 [1, 6]: No binding to -4
- Log KD β1 [2, 8]: No binding to −4
- Log KD β1 [2, 6]: No binding to -4
